Series [1] in a line: Phase solubility study of MTX in cyclodextrin solutions. As to conditions: MTX with the cyclodextrin, aqueous solution, 25 °C, 1:1 complex. The series is classed as physicochemical. The procedure: The degree of complexation between MTX and β-CDs was determined through phase solubility experiments, as established by Higuchi and Conners. Briefly, an excess of MTX was added to the 10 mL aqueous solution of increasing concentrations (0 to 15 mM) containing each of β-CD, HP-β-CD, M-β-CD, and DM-β-CD. The samples tubes were then vortexed for a few seconds and placed in a water bath maintained at 100 rpm in 25 °C for 5 days (Maxturdy-30; Daihan Scientific, Wonju, Korea) to obtain the saturated complex suspension. The suspension samples obtained were then centrifuged at 10,000 rpm for 10 min and the supernatant was collected, and filtered using a 0.45 µm syringe filter. The samples were then diluted with a mobile phase to obtain the suitable concentrations before being quantified using a HPLC system. All concentrations were made in triplicate (n = 3).
The outcomes of the phase solubility tests were plotted against the known CD and MTX concentration in the sample and the resulting regression profiles was used to derive the association constant (Kα). The apparent association constant (Kα) was calculated from the phase solubility curve according to the following equation:(1) Kα=D :CD/D×CD=Slope/So1−Slope
The complexation efficiency (CE) of the IC system was calculated from the Slope of the phase solubility profiles. (2) CE=D :CD/CD=So×Kα=Slope/1−Slope

Series [2] in a line: Particle size distribution by laser diffraction. Type of series: physicochemical. As to conditions: powder. The procedure:
The complete particle size distribution of free MTX powder and all four MTX-CD IC formulations was investigated by laser diffraction (Mastersizer 3000; Malvern Instruments, Malvern, UK). The particle size/distribution is expressed as Dx10, Dx50, and Dx90, taken from the cumulative distribution, where the particle diameters are measured at the 10th, 50th, and 90th percentiles, respectively. The experiments were performed in triplicate.

A short description of series [3]: In vivo pharmacokinetic study after oral administration. The arrangement: species or system Sprague-Dawley rats. As to conditions: rats, equiv. 20 mg/kg MTX, n = 6. The procedure:
To assess the in vivo pharmacokinetic parameters of free MTX and MTX-CD IC formulations, 30 male Sprague-Dawley rats (6–8 weeks old, weighing 280 ± 20 g) were used (Nara Biotech., Seoul, Korea). All the animals were fed with a normal laboratory diet and water and left for acclimatization in a laboratory environment for 3 days at 23–25 °C/50–55% RH. Care and handling of animals complied with the provisions of guidelines defined and agreed upon by the Institutional Animal Care and Use Committee at the Kyungpook National University (permit number. 2019-0054).
Before the experiment, the animals were divided into five groups with 6 animals per group and made to fast overnight. Each rat, anesthetized with ether, was fixed on a surgical board in the supine position by a thread. A polyethylene tube containing 50 IU/mL of heparin in saline was inserted into the right femoral artery of the rat for cannulation. Then, either 1 mL aqueous suspension of free MTX or the four MTX-CD IC formulations (Equiv. to 20 mg/kg of MTX) was administered orally to each of the rats using oral gavage. Blood samples (~0.3 mL) were drawn from the planted tube at various time periods of 5, 15, 30, 60, 120, 240, 480, 720, and 1440 min after the oral administration. The samples were then immediately transferred into heparin-containing microtubes and centrifuged at 10,000 rpm for 10 min to extract the plasma. The extracted plasma samples were transferred to other microtubes and stored at −20 °C until further analysis by HPLC.
Plasma (90 μL) was mixed with 10 μL of theophylline solution (1000 μg/mL in MeOH) as the internal standard and 100 μL of methanol, respectively. The samples (200 μL) were then centrifuged at 13,000 rpm for 10 min and the upper clear supernatant layer was drawn and injected into the HPLC system (20 μL) for the quantification of MTX. In addition, the blood samples drawn at pre-dose (0 h) were used to draw a six-point calibration plot. The Slope of the graph was linear with R^2 = 0.995 over the range of 25–2000 ng/mL. The mobile phase composition, flow rate, analytical column used, and UV wavelength of the HPLC method was similar to that described in Section 2.3. The pharmacokinetic (PK) parameters such as maximal plasma concentration (Cmax), time to reach Cmax (Tmax), were obtained from the plasma concentration vs. time plots. Moreover, the area under the plasma concentration vs. time curve (AUC0–∞) was calculated using the linear trapezoidal summation rule and elimination half-life (t1/2), and elimination rate constant (Kel) were obtained using non-compartmental model WinNonlin software (Pharsight Corp., Mountain View, CA, USA). Differences in the PK parameters were assessed with the one-way ANOVA test and a p value of less than 0.05 (p < 0.05) was considered statistically significant.

The nature of series [4]: Photostability assessment. As to conditions: powder, 20 days, 25 °C/60% RH, 1.2 million lux·hr. The series is classed as physicochemical. The procedure: The free MTX powder and the prepared IC formulations were subjected to UV irradiation for a period of 20 days. The powdered samples were spread over the bottom surface of transparent glass vials and stored at 25 °C/60% RH in a photostability chamber (Model 6545-2; Caron, Marietta, OH, USA). There, the samples were exposed to a light source of 1.2 million lux·hr intensity. At scheduled time intervals, a few mg of the sample was drawn, and assayed for the drug content by HPLC method, as described above. At the end of the study period, the samples were physically inspected for any physical changes on the stability of MTX.

Series [5] concerns Caco-2 cells. Kind of series: MTT cytotoxicity assay. As to conditions: up to 200 µM, 24 h incubation. The series is classed as cell-based, human. The procedure: An MTT assay was used to assess the potential cytotoxic behavior of MTX and MTX/DM-β-CD on human intestinal epithelial cancer cells (Caco-2). The Caco-2 cells were grown in DMEM supplemented with 10% FBS, 1% v/v sodium pyruvate, L-glutamine, penicillin, and MEM non-essential amino acids. The cells (2 × 10^4 cells/well) were then seeded onto 96-well transwell plates and incubated at 37 °C with 5% CO2 for 24 h. New medium containing the tested formulations i.e., MTX and MTX/DM-β-CD (IC4), with varying concentrations, were added and incubated for 24 h. The culture medium was then aspirated, and the viability of the cells was determined by adding 20 μL/well of MTT solution to each 96-well plate and incubating for another 4 h. The formazan crystals were dissolved by adding 150 μL/well DMSO. The developed formazan was assayed at 570 nm, using a microplate reader with untreated cells serving as a control. All the tests were carried out in two microplates with six parallel wells each.
(In general: Formazan colour is commonly taken as a measure of viable cells.)

The nature of series [6]: In vitro Caco-2 permeation experiment. Type of series: in vitro ADME. As to conditions: human, Caco-2 monolayer, 50 µg/mL MTX. The procedure:
The in vitro permeability of MTX and MTX/DM-β-CD formulation was evaluated using Caco-2 cells (passage no 45) and performed like the previously reported method. The cells were seeded (5 × 10^5 cells/well) onto filter inserts from 12-well transwell plates and grown at 37 °C with 5% CO2 for 24 h. The cells were then cultured for three weeks, with the media being replaced on alternate days. Caco-2 cells with TEER ≥ 500 Ω·cm^2 were used in this experiment, which is indicative of adequate monolayer formation.
To evaluate the A to B transfer, the medium from each well was replaced with prewarmed HBSS (washing of monolayer) and maintained at 37 °C for 15 min. The HBSS solution on both sides of the cell monolayer was removed by decanting and aspiration from the lower end of the plate well. Then, 0.5 mL of HBSS (pH 7.4) medium containing 50 µg/mL of MTX alone or eqvt. concentration of MTX/DM-β-CD formulation was placed to the dosing compartment (A) and 1.5 mL of fresh HBSS in the receiving compartment (B). […] MTX was quantified at m/z 455.2 ⟶ 308.1 while berberine at m/z 336.1 ⟶ 320.0.
The apparent permeability coefficient (Papp, cm/s) was calculated as:(3) Papp=(dQ/dt)/(C0×A)
The efflux ratio (ER) was calculated as:(4) ER=Papp (B→A)/Papp (A→B) where, Papp (B → A) and Papp (A → B) represents the apparent permeability of the investigated formulations.
A general note: Caco-2 cells form a polarised layer with tight junctions and transporters.

The conditions of series [7]: cited from earlier work.
The conditions of series [8]: for doses >40 mg/m^2; cited from earlier work.
The test system of series [9] is Caco-2 cells. The arrangement: method as in PMID 29498663, PMID 31761193. As to conditions: read-out: half-maximal inhibitory concentration (IC50) against Caco-2 cells; cited from earlier work.
Where [10] appears, read: male, Sprague-Dawley, rat, plasma.

On to 2-hydroxylpropyl-β-CD [HP-β-CD], for which, in series [1], the “Stability Constant (Kα)” value came out at 433.56 M⁻¹.
In the case of `COCC1OC2OC3C(COC)OC(OC4C(COC)OC(OC5C(COC)OC(OC6C(COC)OC(OC7C(COC)OC(OC8C(COC)OC(OC1C(O)C2OC)C(OC)C8O)C(OC)C7O)C(OC)C6O)C(OC)C5O)C(OC)C4O)C(OC)C3O` (stereo not drawn) [DM-β-CD, heptakis (2,6-di-O-methyl)-β-cyclodextrin], the “Stability Constant (Kα)” value in series [1] was 3114.69 M⁻¹.
As to `CN(Cc1cnc2nc(N)nc(N)c2n1)c1ccc(C(=O)N[C@@H](CCC(=O)O)C(=O)O)cc1` [MTX, Methotrexate], in series [2], the “Dx (10)” value is 3.60 ± 0.48 μm, the “Dx (50)” value came to 14.03 ± 2.97 μm and the “Dx (90)” value is given as 103.73 ± 12.13 μm. Besides, in series [3] (setting [10]), the AUC (as a rule, concentration integrated over time) came to 1740 ± 295 ng·h/mL; the Tmax (usually the time at which the peak concentration occurs) was determined as 1.13 ± 0.23 h; the half-life – broadly, how long it takes for the measured level to halve – was 5.4 ± 0.72 h; the k el was 3.61e-05 s⁻¹. The Cmax – broadly, the peak of the concentration-time curve – in series [3] worked out at 265.63 ± 57.05 ng/mL. Further, the “decrease in MTX concentration after UV irradiation” value in series [4] came out at 36.8 ± 1.7%. In series [5], the “cytotoxicity against Caco-2 cells” value was “no substantial cytotoxicity”. Further, in [6] (HBSS pH 7.4, 1 h, read-out: Papp A to B transport), the apparent permeability from apical to basolateral (Papp A→B) (commonly the apparent permeability from the apical to the basolateral side of a cell layer) at 1 h, 50 µg/mL was 0.57 ± 0.14 ×10⁻⁶ cm/s. Further, the efflux ratio at 1 h, 50 µg/mL in series [6] (HBSS pH 7.4, read-out: efflux ratio (B to A/A to B)) was determined as 8. In addition, the “C logP” value in series [7] is 0.53. In addition, the bioavailability in series [8] is ~ 18%.
Regarding `CC(=O)O[C@@]12CO[C@@H]1C[C@H](O)[C@@]1(C)C(=O)[C@H](O)C3=C(C)[C@@H](OC(=O)[C@H](O)[C@@H](NC(=O)OC(C)(C)C)c4ccccc4)C[C@@](O)([C@@H](OC(=O)c4ccccc4)[C@H]21)C3(C)C` [docetaxel], in series [9], the IC50 is 70 µM.
As to `COc1cccc2c1C(=O)c1c(O)c3c(c(O)c1C2=O)C[C@@](O)(C(=O)CO)C[C@@H]3O[C@H]1C[C@H](N)[C@H](O)[C@H](C)O1` [doxorubicin], the IC50 in series [9] is 5 µM.
Turning to `OC[C@H]1O[C@@H]2O[C@H]3[C@H](O)[C@@H](O)[C@@H](O[C@H]4[C@H](O)[C@@H](O)[C@@H](O[C@H]5[C@H](O)[C@@H](O)[C@@H](O[C@H]6[C@H](O)[C@@H](O)[C@@H](O[C@H]7[C@H](O)[C@@H](O)[C@@H](O[C@H]8[C@H](O)[C@@H](O)[C@@H](O[C@H]1[C@H](O)[C@H]2O)O[C@@H]8CO)O[C@@H]7CO)O[C@@H]6CO)O[C@@H]5CO)O[C@@H]4CO)O[C@@H]3CO` [β-CD, β-cyclodextrin], the “Stability Constant (Kα)” value in series [1] worked out at 552.25 M⁻¹.
As for methyl-β-cyclodextrin [M-β-CD], the “Stability Constant (Kα)” value in series [1] was found to be 574.48 M⁻¹.

(Values after publication PMC9609692, “Alternative Methotrexate Oral Formulation: Enhanced Aqueous Solubility, Bioavailability, Photostability, and Permeability” (Pharmaceutics, 2022).)
